Values joined by “and” are separate entries in the source; they are usually repeats but may differ in a detail not shown here. Identical values can stand only once.
How the values were obtained:
melanocytes B16 = assay: Inhibition of melanin synthesis; whitening activity on melanocytes B16; assay type: cell-based; settings: for Melanin / Proteins: % against control, 3 days
Protocol: The whitening activity of the extract was evaluated on a cell line of melanocytes (melanocytes B16 were used; this is a cell line known to the skilled person in the art). The melanocytes were exposed to the extract for 3 days at 37° C. and then the melanocytes were homogenised in 1 n NaOH and the level of melanin was evaluated by measuring the optical density at 475 nm. The level of proteins in the cells was determined by Bradford's method.
The results are expressed in % refering of the control and the whitening potential is characterised by the ratio of melanin level by the protein level (or melanin/protein) for a non toxic concentration of the tested compound.

human fibroblasts = assay: Protection of human fibroblasts against UV-A radiation (released MDA, cellular proteins); assay type: cell-based; settings: % versus non-irradiated control; UV-A 20 J/cm2; dose 0.0003 % w/v
Protocol: The aim of this test is to evaluate the capacities against oxidative stress of the extract by a test on a cell culture of human fibroblasts in vitro. This test in vitro evaluates the capacities of cytophotoprotection of human fibroblasts against UV-A radiation. […] The formed lipoperoxydes split in malondialdehyde responsible of the reticulation of many biological molecules such as proteins (inhibition of enzymes) and nucleic bases (mutagenesis).
The fibroblasts were seeded in a defined culture medium with foetal calf serum (FCS). […] At the end of the irradiation, the level of MDA (malondialdehyde) was measured in the supernatant by a chemical reaction of MDA with thiobarbituric acid which produces a coloured compound the concentration of which was determined by measuring optical density and the level of proteins was measured in the cell homogenate by Bradford's method. Bradford's method is a known method to quantify the level of proteins (Bradford M M., A rapid and sensitive method for the quantification of microgram quantities of protein utilizing the principle of protein-dye binding. Anal. Biochem., Vol 72, pages 248 to 254, 1976).
The results are expressed as % versus the irradiated control or MDA, and the non-irradiated control for proteins then as an average value of 2 tests in triplicate: […]

OC[C@H]1O[C@@H](Oc2ccc(O)cc2)[C@H](O)[C@@H](O)[C@@H]1O [Arbutin]
Melanin (melanocytes B16; dose 0.2 % w/v): 54% | Proteins (melanocytes B16; dose 0.2 % w/v): 86% | Index = Proteins/Melanin (melanocytes B16; dose 0.2 % w/v): 1.60

O=c1cc(CO)occ1O [Kojic acid]
Melanin (melanocytes B16; dose 0.03 % w/v): 26% | Proteins (melanocytes B16; dose 0.03 % w/v): 89% | Index = Proteins/Melanin (melanocytes B16; dose 0.03 % w/v): 3.37

vitamin E
Cellular Proteins (human fibroblasts): 110% and 96%

Reference: patent publication US20100260697A1, “Composition Containing An Extract of the Fruit of Schisandra Chinensis and Process for Producing Same” (COGNIS FRANCE S.A.S., priority 2003, published 2010)
